Results published in publication PMC6368574, “Probing the Inhibition of Microtubule Affinity Regulating Kinase 4 by N-Substituted Acridones” (Scientific Reports, 2019).
Like-named read-outs stand apart in the source and are kept apart here.

Assays:
recombinant MARK4 [1] = biological target: T1, recombinant MARK4 (Homo sapiens, UniProt Q96L34); test: ATPase enzyme inhibition assay (Malachite Green); assay type: biochemical
T1 construct: made in house; host or cells: bacterial cells (Luria-Bertani broth, IPTG induction)
T1 sequence (Q96L34 1-752): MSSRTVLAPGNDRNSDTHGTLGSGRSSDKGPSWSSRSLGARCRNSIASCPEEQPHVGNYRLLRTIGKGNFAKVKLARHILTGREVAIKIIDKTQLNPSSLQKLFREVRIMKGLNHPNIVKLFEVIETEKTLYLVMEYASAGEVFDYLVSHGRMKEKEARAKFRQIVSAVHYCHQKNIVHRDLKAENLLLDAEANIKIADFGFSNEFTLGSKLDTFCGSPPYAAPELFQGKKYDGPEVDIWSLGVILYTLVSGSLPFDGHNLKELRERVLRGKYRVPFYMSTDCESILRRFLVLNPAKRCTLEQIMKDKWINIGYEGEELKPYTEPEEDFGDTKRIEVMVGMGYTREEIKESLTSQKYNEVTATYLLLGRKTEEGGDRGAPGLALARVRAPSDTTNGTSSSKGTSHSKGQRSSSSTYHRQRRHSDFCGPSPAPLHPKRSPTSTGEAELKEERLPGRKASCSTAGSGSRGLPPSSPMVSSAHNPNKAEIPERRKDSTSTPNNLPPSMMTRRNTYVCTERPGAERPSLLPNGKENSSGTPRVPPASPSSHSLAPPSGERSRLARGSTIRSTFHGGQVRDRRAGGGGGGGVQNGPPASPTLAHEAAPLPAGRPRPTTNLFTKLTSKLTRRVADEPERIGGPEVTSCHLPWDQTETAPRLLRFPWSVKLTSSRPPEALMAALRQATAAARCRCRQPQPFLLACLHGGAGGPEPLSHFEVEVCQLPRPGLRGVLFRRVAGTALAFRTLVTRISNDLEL
Description: To evaluate the inhibition activity of synthesized acridone derivatives against recombinant MARK4, ATPase enzyme inhibition assay was performed (Table S3). […] Our studies were initiated by replacing the ester group of 5 with sterically and electronically diverse amines affording the corresponding amides 7a–j, in order to establish favorable interactions with residues Ala135, Val70, Asp196 and/or Glu182. […] In this case, the docking studies indicate a better fit of 7h compared with 7g in the active site of MARK4 with a binding energy of −9.5 kcal/mol and a stronger predicted hydrogen bond with Ala135 (3.06 Å for 7h, 3.19 Å for 7g).
Enzyme activity of MARK4 was evaluated with the help of standard Malachite Green (Biomol Green reagent, Enzo Life Sciences) microtitre-plate assay as described earlier. Estimated amount of MARK4 (200 ng) and 20 µM ATP as a substrate were incubated for 10–15 min at 25 °C with increasing concentrations (0–20 µM) of synthesized acridone derivatives, in 20 mM Tris buffer, pH 8.0. Reaction was terminated by the adding 100 µl of Biomol Green reagent and absorbance of final reaction products was recorded at 620 nm in a multiplate ELSIA reader (BioRad). In order to quantify the hydrolyzed phosphate, inorganic phosphate standard curve were prepared from the phosphate standard solutions as supplied by the manufacturer (Biomol Green reagent, Enzo Life Sciences). All data points represent triplicate measurements from at least three independent experiments.

[2] = system: phosphorylation of tau protein in SH-SY5Y cells; test: Tau-phosphorylation assay by flow cytometry; assay type: cell-based, human; conditions: IC50 dose, 24 h
Description: To see the effect of most potential lead molecules (compound 7b, 7d and 7f) on the substrate protein (tau protein) of MARK4 enzyme inhibition activity studies are extended to a cell-based tau-phosphorylation assay. Cells were allowed to grow in the presence of IC50 dose of compound 7b, 7d and 7f for 24 hrs. Following the treatment, the phosphorylation of tau has been assessed with the help of flow cytometry.
To study the effect of selected lead molecules on the phosphorylation of tau protein (a substrate of MARK4) the SH-SY5Y cells were treated with IC50 dose of compound 7b, 7d and 7 f for 24 h and subjected to FACS based analysis as per our previously published protocols[17],[50].

recombinant MARK4 [3] = biological target: T1, recombinant MARK4; test: Fluorescence binding (quenching, modified Stern-Volmer)
Description: To determine the binding affinities of the synthesized acridones with MARK4, we used fluorescence emission spectra measurements. Protein sample was excited at 280 nm and emission was measured in 300–400 nm range with increasing concentrations of each acridone derivative (0–100 µM). A significant decrease in fluorescence intensity of MARK4 with increasing concentrations of each compound was fitted in the modified Stern-Volmer equation to calculate the binding constant, Ka and the number of binding sites per protein molecule (n). All the synthesized acridones have been screened (Supplementary Fig. S6, S7 and Table S3) and those with the highest affinity have been selected (compounds 5, 7b, 7d, 7f and 7h) for further evaluation (Fig. 3). The binding constants of compound 5, 7b, 7d, 7f and 7h were estimated as 6.3 × 10^4 M^−1, 1.0 × 10^6 M^−1, 1.0 × 10^6 M^−1, 1.9 × 10^6 M^−1, and 3.1 × 10^5 M^−1, respectively (Fig. 3).
Figure 3 Fluorescence binding studies of compound 5, 7b, 7d, 7f and 7h with MARK4. (A) Fluorescence emission spectra of MARK4 (10 µM) with increasing concentrations of the respective compound (5, 7b, 7d, 7f and 7h). Excitation wavelength was fixed at 280 nm and emission was recorded in 300–400 nm range. (B) Modified Stern-Volmer plot obtained from fluorescence quenching of MARK4 by compound 5, 7b, 7d, 7f and 7h, respectively. It was used to calculate binding affinity (Ka) and number of binding sites (n).
Binding affinities of synthesized acridone derivatives with recombinant MARK4 was carried out by observing the fluorescence intensity change of emission spectrum of MARK4 by following our previously published protocol[44],[45]. Each titration of protein was performed in triplicates and the average was taken for analysis. A significant decreased in fluorescence intensity of protein with increase in the concentration of acridone derivatives were used as the criteria for deducing the binding constant (Ka) as well as number of binding sites (n) present on the protein molecule using the modified Stern-Volmer equation[46]:1 log(Fo−F)/F=logKa+nlog[L] where, Fo = Fluorescence intensity of native protein, F = Fluorescence intensity of protein in the presence of ligand, Ka = Binding constant, n = number of binding sites, L = concentration of ligand. The values for Ka and n were derived from the intercept and slope, respectively.

[4] = Table 1, from enzyme inhibition, read-out: IC50, (µM), MARK4
[5] = Table S3, fluorescence binding, read-out: Binding affinity (Ka) (converted)
[6] = ATPase inhibition, 20 µM ATP, read-out: IC50 against MARK4

Row | Compound | IC50 (recombinant MARK4 [1]; [4]) | phosphorylation level of tau protein [2] | Kd (recombinant MARK4 [3]; [5]) | IC50 (recombinant MARK4 [1]; [6]) | Kd (recombinant MARK4 [3]; fluorescence quenching, MARK4 10 µM, excitation 280 nm, read-out: binding constant, Ka (converted))
1 | COc1ccc(CNC(=O)Cn2c3ccccc3c(=O)c3cc(C)ccc32)cc1 [Compound 7d, N-(4-methoxybenzyl)-2-(2-methyl-9-oxoacridin-10(9H)-yl)acetamide] | 2.2 ± 0.05 µM | decreases the phosphorylation level of tau protein | 1 µM |  | 
2 | COc1ccccc1NC(=O)Cn1c2ccccc2c(=O)c2cc(C)ccc21 [Compound 7h, N-(2-methoxyphenyl)-2-(2-methyl-9-oxoacridin-10(9H)-yl)acetamide] |  |  | 3.23 µM | 12.1 ± 1.1 µM | 
3 | Cc1ccc(NC(=O)Cn2c3ccccc3c(=O)c3cc(C)ccc32)cc1 [Compound 7f, 2-(2-Methyl-9-oxoacridin-10(9H)-yl)-N-(p-tolyl)acetamide] | 4.5 ± 0.52 µM | decreases the phosphorylation level of tau protein | 0.526 µM |  | 
4 | COC(=O)Cn1c2ccccc2c(=O)c2cc(C)ccc21 [Compound 5, Methyl 2-(2-methyl-9-oxoacridin-10(9H)-yl)acetate] |  |  |  | 14.1 ± 1.02 µM | 15.9 µM
5 | Cc1ccc2c(c1)c(=O)c1ccccc1n2CC(=O)NCc1ccccc1 [Compound 7b, N-benzyl-2-(2-methyl-9-oxoacridin-10(9H)-yl)acetamide] | 1.8 ± 0.04 µM | decreases the phosphorylation level of tau protein | 1 µM |  | 
